Results published in patent US20060105013A1, “Osteopontin-coated surfaces and methods of use” (priority 2000, published 2006).

Assays:
Haundel/Labrador dogs = experiment: In vivo histology of bone healing around rhOPN coated Ti implants in dogs; parameters: species or system dog; conditions: hollow screw Ti implants, dogs sacrificed after 4 and 8 weeks; vs uncoated
Text: Forty implants (5 per quadrant) were placed in four Haundel/Labrador dogs after extraction of four premolars (PM1-PM4) and one molar (M1), and a three month healing period. Eight hollow screw Ti implants were coated with rhOPN. Eight uncoated implants served as controls. The remaining implants were coated with 3 additional different molecules denoted as study 2, study 3, and study 4.
Prior to implant placement, core samples from the donor place were taken to histologically analyze bone quality after extractions. This procedure, also ensured a hollow space for bone ingrowth inside the coated and uncoated implants. Dogs were sacrificed after 4 and 8 weeks.
Implants were recovered for histological analysis. Each implant was sectioned vertically. The core inside the hallow implant was removed using liquid nitrogen. Decalcified sections were embedded in paraffin and stained using Herovichi's techniques to differentiate immature from mature collagen. Light microscopy at 4× and 40× magnifications were used to compare histological differences between rhOPN coated implants and uncoated implants.
Uncoated implants show normal bone healing characterized by granulation tissue and a few areas of vascularization and matrix deposition after four weeks.

HOS cells [1] = experiment: Attachment of HOS cells to plastic, glass or chromocobalt surfaces coated with OPN; type: cell-based, human; conditions: 1 hour
Experimental: 500 cells were plated on coated plastic, glass or chromocobalt surfaces and incubated at 37° C. in a humidified atmosphere (95% air 5% CO2). Surfaces were coated with either human recombinant phosphorylated OPN (rhOPN) or unphosphorylated OPN. Fibronectin coated surfaces were used as a control. After 1 hour, unattached cells were removed and the surfaces were washed with PBS. The total number of attached cells was determined for the total cpm released for the surfaces after the cells were lysed with 10% TCA and solubilized in 5 ml scintillation fluid. All measurements were done in triplicates.

HOS cells [2] = experiment: Extracellular matrix mineralization (calcium content) of HOS cells on coated Ti disks; type: cell-based, human; conditions: ascorbate and β-glycerol phosphate, uncoated did not mineralize
Experimental: HOS cells were grown either on coated or uncoated titanium disks. Media was supplemented with ascorbate and b-glycerol phosphate to stimulate the mineralization of the extracellular matrix. After two weeks, media was removed and the cells were lysed with triton. Then, all soluble components were removed and calcium content was determined using quantitative, calorimetric determination at […] (Sigma Diagnostics Calcium). Basically, calcium reacts with o-cresolphthalein, a chromogenic agent that in an alkaline medium forms a purple colored complex. The intensity of the color, measured at […], is directly proportional to calcium concentration in the sample.
HOS cells were grown either on coated or uncoated titanium disks. Media was supplemented with ascorbate and β-glycerol phosphate. After two weeks, media was removed and the cells were lysed. Then, all soluble components were removed and calcium content was determined using quantitative, colorimetric determination at 575 nm (Sigma Diagnostics Calcium). All measurements were done in triplicates and reported as mean±Standard error in the mean.
When cultured in the presence of ascorbate and β-glycerol phosphate, HOS cells grown on coated Ti disks mineralized their extracellular matrix within 2 weeks (FIG. 5) in a manner similar to HOS cells cultured on plastic. […]

HOS cells [3] = experiment: Proliferation of HOS cells on Ti disks coated with rhOPN (3H-thymidine incorporation); type: cell-based, human
Experimental: Cell proliferation was determined by the rate of ^3H-Thymidine incorporation into DNA. Cells were labeled with 10 μCi/ml of ^3H-Thymidine in DME media. After 6 hours, the cells were lysed in cold 10% trichloroacetic acid (TCA). The TCA insoluble material was collected and washed several times with 10% TCA, then resuspended in 0.5 N NaOH. ^3H-thymidine incorporation into TCA insoluble material was used as an index of cell proliferation. The material collected was mixed with scintillation liquid (Begman). The amount of radiation generated was compared between cells grown in titanium disks uncoated, and titanium disks coated with OPN.
(§1) Cell proliferation was determined by the rate of ^3H-Thymidine incorporation into DNA. Cells labeled with ^3H-Thymidine were seeded for 6 hours, then lysed with TCA. The TCA insoluble material was collected and resuspended in 0.5 N NaOH. ^3H-thymidine incorporation into TCA insoluble material was used as an index for cell proliferation. Rate of proliferation is expressed as cpm/1000 cells/6 h. Control group: 254,54, rhOPN group: 560,83. All measurements were done in triplicates and reported as mean±Standard error for the mean.
Since rhOPN promoted cell attachment to Ti disks, it was of interest to examine whether the protein had any effect on the proliferation of HOS grown on Ti disks.

HOS cells [4] = experiment: Proliferation of HOS cells on plastic, glass or CrCo surfaces coated with rhOPN; type: cell-based, human
Experimental: as §1, with “h.” for “h. Control group: 254,54, rhOPN group: 560,83.”, “triplicates.” for “triplicates and reported as mean±Standard error for the mean.”
Since rhOPN promoted cell attachment to different surfaces, it was of interest to examine whether the protein had any effect on the proliferation of HOS grown on these surfaces.

HOS cells [5] = experiment: Attachment of HOS cells to Ti disks coated with rhOPN; type: cell-based, human; conditions: Ti disks coated with 50 μg of rhOPN; after 30 min; vs uncoated
Experimental: HOS cells were labeled overnight with 10 uCi ^3H-thymidine, then dissociated from the plate with non-enzymatic dissociation solution (Sigma), washed 2 times with PBS, and counted. ^3H-thymidine incorporated into TCA insoluble material was determined for the cells. 5000 cells (cpm total 1000) were plated onto coated or uncoated titanium disks and the disks incubated at 37° C. for 30 min. Unadhered cells were removed, and attached cells were washed 3 times with 0.5 ml PBS. The cells were lysed with ice cold 20% TCA and the radioactivity in the TCA insoluble fraction was determined using the Scintillation counter (Begman 5000).
5000 cells (total cpm 1000) were plated on either coated or uncoated Ti disks and incubated at 37° C. in a humidified atmosphere (95% air 5% CO2). After 30 min, unattached cells were removed and the disks were washed with PBS. The total number of attached cells was determined for the total cpm released for the disks after the cells were lysed with 10% TCA and solubilized in 5 ml scintillation fluid. All measurements were done in triplicates and graphed as mean±Standard error of the mean.
The initial events following seeding of cells onto Ti surfaces include the attachment, migration and proliferation of the seeded cells. Coating Ti disks with 50 μg of rhOPN enhanced by 1100% the attachment of HOS cells to Ti disks (FIG. 2), after 30 min.

## rhOPN: human recombinant phosphorylated form of osteopontin
Haundel/Labrador dogs
  bone healing around implants (histology): enhanced bone healing
HOS cells [1]; Plastic surface
  % total attached: 90.8%
HOS cells [1]; chromocobalt (CrCo) surface
  % total attached: 69.2%
HOS cells [1]; glass surface
  % total attached: 98.1%
HOS cells [2]
  time within which HOS cells mineralized their extracellular matrix: ≤ 2 weeks
HOS cells [3]
  Rate of proliferation: 560,83 cpm/1000 cells/6 h
  proliferation rate relative to cells grown on uncoated Ti disks: approximately twice
HOS cells [4]; CrCo
  Proliferation Rate: 1740 Cpm/6 h/1000 cells
HOS cells [4]; Glass
  Proliferation Rate: 2740 Cpm/6 h/1000 cells
HOS cells [4]; Plastic
  Proliferation Rate: 3300 Cpm/6 h/1000 cells
HOS cells [4]; glass, plastic and chromocobalt surfaces
  proliferation rate relative to cells grown on uncoated surfaces: at least twice
HOS cells [5]
  enhancement of attachment of HOS cells to Ti disks: 1100%
